Measured values reported in the SangsterLogP compilation.

Q: With Clc1cc(Cl)c(Cl)c(-c2c(Cl)c(Cl)c(Cl)c(Cl)c2Cl)c1Cl as the compound, how does the logP read?
A: 7.77

Q: Which logP does the source give for Clc1ccc(-c2c(Cl)c(Cl)c(Cl)c(Cl)c2Cl)c(Cl)c1 here?
A: 7.13

Q: Which logP does the source give for Clc1ccc(-c2cccc(Cl)c2)cc1 here?
A: 5.15

Q: Which logP does the source give for Clc1cccc(-c2cc(Cl)c(Cl)c(Cl)c2Cl)c1 here?
A: 6.92

Q: For Clc1ccc(-c2c(Cl)c(Cl)cc(Cl)c2Cl)c(Cl)c1Cl, which logP is on record?
A: 6.73

Q: For Clc1cc(Cl)c(-c2ccc(Cl)c(Cl)c2Cl)cc1Cl, which logP is on record?
A: 6.72

Q: With Clc1ccc(-c2cc(Cl)c(Cl)cc2Cl)c(Cl)c1 as the compound, how does the logP read?
A: 6.41

Q: With Clc1cc(Cl)c(-c2c(Cl)c(Cl)cc(Cl)c2Cl)c(Cl)c1 as the compound, how does the logP read?
A: 6.78

Q: Which logP does the source give for Clc1cc(-c2c(Cl)c(Cl)cc(Cl)c2Cl)c(Cl)c(Cl)c1Cl here?
A: 7.35

Q: With Clc1ccc(-c2cc(Cl)cc(Cl)c2Cl)cc1 as the compound, how does the logP read?
A: 6.1

Q: For Clc1cc(Cl)c(-c2c(Cl)c(Cl)c(Cl)c(Cl)c2Cl)c(Cl)c1, which logP is on record?
A: 7.48

Q: With Clc1ccc(-c2ccc(Cl)c(Cl)c2Cl)c(Cl)c1 as the compound, how does the logP read?
A: 6.18

Q: With Clc1cc(Cl)cc(-c2ccccc2)c1 as the compound, how does the logP read?
A: 5.41

Q: With Clc1ccc(Cl)c(-c2c(Cl)c(Cl)c(Cl)c(Cl)c2Cl)c1Cl as the compound, how does the logP read?
A: 7.21

Q: With Clc1cc(-c2c(Cl)c(Cl)c(Cl)c(Cl)c2Cl)cc(Cl)c1Cl as the compound, how does the logP read?
A: 7.62

Q: With Clc1ccc(-c2c(Cl)cc(Cl)cc2Cl)cc1 as the compound, how does the logP read?
A: 6.03

Q: With Clc1cccc(Cl)c1-c1c(Cl)cccc1Cl as the compound, how does the logP read?
A: 5.24

Q: Which logP does the source give for Clc1cc(Cl)c(Cl)c(-c2cc(Cl)c(Cl)c(Cl)c2Cl)c1 here?
A: 7.21

Q: With Clc1ccc(Cl)c(-c2cc(Cl)c(Cl)cc2Cl)c1 as the compound, how does the logP read?
A: 6.3

Q: For Clc1cc(Cl)c(-c2cc(Cl)ccc2Cl)c(Cl)c1, which logP is on record?
A: 6.11

Q: With Clc1cc(Cl)c(-c2c(Cl)c(Cl)cc(Cl)c2Cl)cc1Cl as the compound, how does the logP read?
A: 6.92

Q: Which logP does the source give for Clc1cc(Cl)c(Cl)c(-c2c(Cl)cc(Cl)c(Cl)c2Cl)c1 here?
A: 6.92

Q: With Clc1ccccc1-c1cc(Cl)c(Cl)c(Cl)c1Cl as the compound, how does the logP read?
A: 6.39

Q: For Clc1cccc(-c2ccccc2)c1Cl, which logP is on record?
A: 4.99

Q: For Clc1ccc(-c2c(Cl)cc(Cl)cc2Cl)c(Cl)c1, which logP is on record?
A: 6.23

Q: For Clc1cc(-c2c(Cl)ccc(Cl)c2Cl)cc(Cl)c1Cl, which logP is on record?
A: 6.63

Q: With Clc1ccc(Cl)c(-c2c(Cl)c(Cl)cc(Cl)c2Cl)c1Cl as the compound, how does the logP read?
A: 6.41

Q: With Clc1cc(Cl)c(-c2ccccc2Cl)cc1Cl as the compound, how does the logP read?
A: 5.69

Q: With Clc1cc(Cl)c(-c2ccccc2Cl)c(Cl)c1 as the compound, how does the logP read?
A: 5.75

Q: For Clc1ccc(-c2ccccc2Cl)cc1Cl, which logP is on record?
A: 5.71

Q: With Clc1ccc(-c2cc(Cl)cc(Cl)c2Cl)c(Cl)c1 as the compound, how does the logP read?
A: 6.32

Q: Which logP does the source give for Clc1cccc(-c2cccc(Cl)c2)c1 here?
A: 5.27

Q: With Clc1cc(Cl)c(-c2c(Cl)cc(Cl)c(Cl)c2Cl)cc1Cl as the compound, how does the logP read?
A: 7.05

Q: Which logP does the source give for Clc1ccc(-c2cc(Cl)ccc2Cl)c(Cl)c1 here?
A: 5.87

Q: With Clc1cc(Cl)cc(-c2c(Cl)c(Cl)c(Cl)c(Cl)c2Cl)c1 as the compound, how does the logP read?
A: 7.21

Q: Which logP does the source give for Clc1ccc(Cl)c(-c2ccc(Cl)c(Cl)c2Cl)c1 here?
A: 6.23

Q: Which logP does the source give for Clc1ccc(-c2ccc(Cl)c(Cl)c2)cc1 here?
A: 5.78

Q: For Clc1ccc(Cl)c(-c2c(Cl)cc(Cl)c(Cl)c2Cl)c1, which logP is on record?
A: 6.45

Q: Which logP does the source give for Clc1ccc(-c2ccc(Cl)cc2)cc1 here?
A: 5.23

Q: Which logP does the source give for Clc1ccccc1-c1c(Cl)ccc(Cl)c1Cl here?
A: 4.84

Q: With Clc1cc(Cl)cc(-c2c(Cl)cc(Cl)cc2Cl)c1 as the compound, how does the logP read?
A: 6.43

Q: Which logP does the source give for Clc1ccc(-c2ccccc2Cl)c(Cl)c1 here?
A: 5.39

Q: For Clc1ccc(-c2c(Cl)cc(Cl)c(Cl)c2Cl)c(Cl)c1Cl, which logP is on record?
A: 6.99

Q: For Clc1ccccc1-c1c(Cl)cccc1Cl, which logP is on record?
A: 5.04

Q: For Clc1ccc(-c2ccccc2Cl)cc1, which logP is on record?
A: 5.09

Q: For Clc1ccc(-c2c(Cl)cccc2Cl)cc1Cl, which logP is on record?
A: 5.76

Q: For Clc1ccc(-c2c(Cl)cc(Cl)c(Cl)c2Cl)cc1, which logP is on record?
A: 6.44

Q: Which logP does the source give for Clc1ccc(-c2ccccc2)c(Cl)c1 here?
A: 5.16

Q: With Clc1ccc(-c2c(Cl)cccc2Cl)c(Cl)c1 as the compound, how does the logP read?
A: 5.51

Q: Which logP does the source give for Clc1ccc(-c2ccc(Cl)cc2Cl)c(Cl)c1 here?
A: 5.94

Q: With Clc1cc(-c2c(Cl)c(Cl)cc(Cl)c2Cl)cc(Cl)c1Cl as the compound, how does the logP read?
A: 7.21

Q: For Clc1cccc(-c2c(Cl)c(Cl)cc(Cl)c2Cl)c1, which logP is on record?
A: 6.41

Q: With Clc1cc(-c2c(Cl)cc(Cl)c(Cl)c2Cl)cc(Cl)c1Cl as the compound, how does the logP read?
A: 7.21

Q: Which logP does the source give for Clc1ccccc1-c1ccc(Cl)c(Cl)c1Cl here?
A: 5.79

Q: With Clc1cc(Cl)c(-c2c(Cl)c(Cl)c(Cl)c(Cl)c2Cl)cc1Cl as the compound, how does the logP read?
A: 7.49

Q: With Clc1cc(Cl)c(Cl)c(-c2c(Cl)c(Cl)cc(Cl)c2Cl)c1 as the compound, how does the logP read?
A: 6.85

Q: With Clc1ccc(Cl)c(-c2ccccc2)c1Cl as the compound, how does the logP read?
A: 5.44

Q: For Clc1ccc(-c2cc(Cl)c(Cl)cc2Cl)cc1, which logP is on record?
A: 6.1

Q: Which logP does the source give for Clc1cccc(-c2c(Cl)cccc2Cl)c1Cl here?
A: 4.84

Q: Which logP does the source give for Clc1ccc(Cl)c(-c2ccccc2Cl)c1 here?
A: 5.34

Q: Which logP does the source give for Clc1cccc(-c2cccc(Cl)c2Cl)c1Cl here?
A: 5.67

Q: For Clc1ccc(-c2c(Cl)c(Cl)cc(Cl)c2Cl)cc1, which logP is on record?
A: 6.39

Q: With Clc1ccc(-c2cccc(Cl)c2Cl)c(Cl)c1 as the compound, how does the logP read?
A: 5.72

Q: Which logP does the source give for Clc1cc(Cl)c(-c2ccc(Cl)c(Cl)c2)c(Cl)c1 here?
A: 6.4

Q: For Clc1cccc(-c2cc(Cl)c(Cl)c(Cl)c2Cl)c1Cl, which logP is on record?
A: 6.76

Q: Which logP does the source give for Clc1cc(Cl)c(Cl)c(-c2c(Cl)c(Cl)c(Cl)c(Cl)c2Cl)c1 here?
A: 7.43

Q: With Clc1ccc(-c2c(Cl)c(Cl)cc(Cl)c2Cl)cc1Cl as the compound, how does the logP read?
A: 6.78

Q: With Clc1cc(-c2c(Cl)ccc(Cl)c2Cl)c(Cl)c(Cl)c1Cl as the compound, how does the logP read?
A: 6.85

Q: With Clc1ccc(Cl)c(-c2c(Cl)c(Cl)c(Cl)c(Cl)c2Cl)c1 as the compound, how does the logP read?
A: 6.99

Q: For Clc1ccc(-c2c(Cl)ccc(Cl)c2Cl)cc1, which logP is on record?
A: 5.76

Q: Which logP does the source give for Clc1cc(-c2c(Cl)cc(Cl)c(Cl)c2Cl)c(Cl)c(Cl)c1Cl here?
A: 7.43

Q: For Clc1ccc(Cl)c(-c2cc(Cl)c(Cl)c(Cl)c2Cl)c1, which logP is on record?
A: 6.75

Q: For Clc1cccc(-c2cc(Cl)ccc2Cl)c1, which logP is on record?
A: 5.65

Q: With Clc1cc(Cl)c(Cl)c(-c2c(Cl)c(Cl)cc(Cl)c2Cl)c1Cl as the compound, how does the logP read?
A: 7.16

Q: With Clc1ccc(-c2ccccc2)cc1 as the compound, how does the logP read?
A: 4.63

Q: Which logP does the source give for Clc1cccc(-c2c(Cl)cc(Cl)cc2Cl)c1 here?
A: 6.03

Q: Which logP does the source give for Clc1ccc(-c2c(Cl)cccc2Cl)c(Cl)c1Cl here?
A: 5.6

Q: With Clc1ccc(-c2cccc(Cl)c2Cl)cc1Cl as the compound, how does the logP read?
A: 5.85

Q: With Clc1ccccc1-c1c(Cl)c(Cl)cc(Cl)c1Cl as the compound, how does the logP read?
A: 6.06

Q: With Clc1cc(Cl)c(-c2cccc(Cl)c2Cl)c(Cl)c1 as the compound, how does the logP read?
A: 6.04

Q: With Clc1cc(Cl)c(-c2cc(Cl)c(Cl)c(Cl)c2Cl)c(Cl)c1 as the compound, how does the logP read?
A: 6.92

Q: Which logP does the source give for Clc1cccc(-c2ccc(Cl)cc2Cl)c1 here?
A: 5.54

Q: For Clc1ccc(-c2ccc(Cl)c(Cl)c2)c(Cl)c1, which logP is on record?
A: 5.98

Q: Which logP does the source give for Clc1cc(Cl)cc(-c2c(Cl)ccc(Cl)c2Cl)c1 here?
A: 6.45

Q: Which logP does the source give for Clc1cc(-c2c(Cl)c(Cl)c(Cl)c(Cl)c2Cl)c(Cl)c(Cl)c1Cl here?
A: 7.94

Q: Which logP does the source give for Clc1ccc(-c2c(Cl)cccc2Cl)cc1 here?
A: 5.24

Q: Which logP does the source give for Clc1ccc(Cl)c(-c2c(Cl)cccc2Cl)c1 here?
A: 5.55

Q: With Clc1cc(Cl)c(-c2ccc(Cl)c(Cl)c2Cl)c(Cl)c1 as the compound, how does the logP read?
A: 6.58

Q: Which logP does the source give for Clc1ccc(-c2c(Cl)cc(Cl)c(Cl)c2Cl)cc1Cl here?
A: 6.78

Q: With Clc1cc(Cl)cc(-c2ccccc2Cl)c1 as the compound, how does the logP read?
A: 5.71

Q: Which logP does the source give for Clc1ccccc1-c1ccccc1 here?
A: 4.42

Q: With Clc1ccc(Cl)c(-c2ccccc2)c1 as the compound, how does the logP read?
A: 5.1

Q: Which logP does the source give for Clc1ccc(-c2c(Cl)c(Cl)c(Cl)c(Cl)c2Cl)cc1Cl here?
A: 7.08

Q: With Clc1ccc(-c2ccccc2)c(Cl)c1Cl as the compound, how does the logP read?
A: 5.68

Q: For Clc1cc(Cl)cc(-c2cc(Cl)cc(Cl)c2)c1, which logP is on record?
A: 6.6

Q: For Clc1cc(-c2cc(Cl)c(Cl)c(Cl)c2Cl)c(Cl)c(Cl)c1Cl, which logP is on record?
A: 7.62

Q: For Clc1cccc(-c2cc(Cl)c(Cl)cc2Cl)c1, which logP is on record?
A: 6.32

Q: For Clc1cccc(-c2cc(Cl)cc(Cl)c2)c1, which logP is on record?
A: 5.81

Q: With Clc1ccccc1-c1cc(Cl)c(Cl)c(Cl)c1 as the compound, how does the logP read?
A: 5.98

Q: With Clc1ccc(-c2c(Cl)c(Cl)c(Cl)c(Cl)c2Cl)c(Cl)c1Cl as the compound, how does the logP read?
A: 7.35

Q: With Clc1cc(Cl)c(-c2c(Cl)cc(Cl)c(Cl)c2Cl)c(Cl)c1Cl as the compound, how does the logP read?
A: 7.21

Q: Which logP does the source give for Clc1ccc(Cl)c(-c2cc(Cl)cc(Cl)c2Cl)c1 here?
A: 6.32
